Source: patent US8436024B2, “2-pyridone compounds” (Astrazeneca AB, priority 2009, dated 2013)

Legend:
[1] = molecular target: T1, Human Neutrophil Elastase (HNE) (Homo sapiens, UniProt P08246); test: Human Neutrophil Elastase Quenched-FRET Assay; format: biochemical; conditions: geomean of measured IC50 values; HNE 0.17 nM, substrate MeOSuc-AAPV-AMC 100 μM, 90 min at room temperature; read-out: Inhibition of Human Neutrophil Elastase IC50
T1 sequence (P08246 30-267): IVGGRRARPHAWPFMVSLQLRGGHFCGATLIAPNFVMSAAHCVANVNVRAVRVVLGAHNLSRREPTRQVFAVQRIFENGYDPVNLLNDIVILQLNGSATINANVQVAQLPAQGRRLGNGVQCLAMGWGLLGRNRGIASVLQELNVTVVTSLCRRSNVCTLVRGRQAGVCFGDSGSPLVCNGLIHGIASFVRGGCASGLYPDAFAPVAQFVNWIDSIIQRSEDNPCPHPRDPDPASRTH
Protocol: Human Neutrophil Elastase Quenched-FRET Assay The assay uses Human Neutrophil Elastase (HNE) purified from serum (Calbiochem art. 324681; Ref Baugh, R. J. et al., 1976, Biochemistry. 15, 836-841). HNE was stored in 50 mM sodium acetate (NaOAc), 500 mM sodium chloride (NaCl), pH 5.5 with added 50% glycerol at −20° C. The protease substrate used was Elastase Substrate V Fluorogenic, MeOSuc-AAPV-AMC (Calbiochem art. 324740; Ref Castillo, M. J. et al., 1979, Anal. Biochem. 99, 53-64). The substrate was stored in dimethyl sulphoxide (DMSO) at −20° C. The assay additions were as follows: Test compounds and controls were added to black 384-well flat-bottom plates (Greiner 781076), 0.2 μL in 100% DMSO, followed by 10 μL HNE in assay buffer with 0.01% Triton (trade mark) X-100 detergent. The assay buffer constitution was: 100 mM Tris(hydroxymethyl)aminomethane (TRIS) (pH 7.5) and 500 mM NaCl. The enzyme and the compounds were incubated at room temperature for 15 minutes. Then 10 μL substrate in assay buffer was added. The assay was incubated for 90 minutes at room temperature. The concentrations of HNE enzyme and substrate during the incubation were 0.17 nM and 100 μM, respectively. The assay was then stopped by adding 20 μl stop solution (140 mM acetic acid, 200 mM sodium monochloroacetate, 60 mM sodium acetate, pH 4.3). Fluorescence was measured on a Wallac EnVision 2102 Multilabel Reader instrument at settings: Excitation 380 nm, Emission 460 nm. IC50 values were determined using Xlfit curve fitting using model 203. […] Specimen results are shown in the following Table in which the IC50 value represents the geomean of the IC50 values measured for a particular compound and “n” refers to the number of times the compound was tested: […]

[2] = Humidity interaction (hygroscopicity determination) by Gravimetrical Vapour Sorption; format: physicochemical; conditions: for hygroscopicity: relative change in weight between 0% RH and 80% RH, second cycle, benzenesulfonate
Protocol: Run time was 6.2 minutes; post time was 2.3 min; and detection was at 235 nm. • (v) In general, the course of reactions was followed by TLC and reaction times are given for illustration only. • (vi) Yields are given for illustration only and are not necessarily those which can be obtained by diligent process development; preparations were repeated if more material was required. • (vii) Chemical symbols have their usual meanings; SI units and symbols are used. • (viii) Solvent ratios are given in volume: volume (v/v) terms. • (ix) Mass spectra (MS) (loop) were recorded on a Micromass Platform LC equipped with HP 1100 detector; unless otherwise stated the mass ion quoted is (MH^+). • (x) X-ray Powder Diffraction patterns were collected on a PANalytical X′Pert PRO MPD theta-theta system, equipped with a focusing beam Johansson monochromator and an X′Celerator detector, using CuKα1 radiation (1.5406 Å, 45 kV, 40 mA). The diffraction pattern was collected between 2 and 40 °2θ in a continuous scan mode. The scan speed was 0.86°/min. with an increment of 0.016°. Samples were mounted on single silicon crystal wafer mounts. • (xi) Humidity Interaction (hygroscopicity determination): The gravimetric responses of test samples to changes in humidity were investigated using a TGA 5000 (TA Instruments) Gravimetrical Vapour Sorption (GVS). The relative humidity (RH) was raised in steps of 10% to 90% RH and lowered back to 0% RH in two cycles. Each level of RH was held until the equilibrium condition (sample weight change<0.005 wt % per 10 minutes) was reached. 3-5 mg of the test sample was placed in the cup and evaluated. The hygroscopicity was calculated as the relative change in weight of the sample between 0% RH at the start of the second cycle and 80% RH during the increase of humidity in the second cycle. […]

IC50 [1] [pM]	Compound	also measured
3480	Cc1c(-c2ccnn2-c2ccc(C#N)cc2)nc(C(=O)NCCC[N+](C)(C)C)c(=O)n1-c1cccc(C(F)(F)F)c1 [Example 6, 3-[({6-[1-(4-cyanophenyl)-1H-pyrazol-5-yl]-5-methyl-3-oxo-4-[3-(trifluoromethyl)phenyl]-3,4-dihydropyrazin-2-yl}carbonyl)amino]-N,N,N-trimethylpropan-1-aminium iodide]	–
–	Cc1c(-c2ccnn2-c2ccc(C#N)cc2)cc(C(=O)NCCC[N+](C)(C)C)c(=O)n1-c1cccc(C(F)(F)F)c1.O=S(=O)([O-])c1ccccc1 [Example 9, 3-(5-(1-(4-cyanophenyl)-1H-pyrazol-5-yl)-6-methyl-2-oxo-1-(3-(trifluoromethyl)phenyl)-1,2-dihydropyridine-3-carboxamido)-N,N,N-trimethylpropan-1-aminium benzenesulfonate]	hygroscopicity ([2]; listed as Form A): 0.8 % (w/w)
934	Cc1c(-c2ccnn2-c2ccc(C#N)cc2)cc(C(=O)NCCCC[N+](C)(C)C)c(=O)n1-c1cccc(C(F)(F)F)c1 [Example 4, 4-[({5-[1-(4-cyanophenyl)-1H-pyrazol-5-yl]-6-methyl-2-oxo-1-[3-(trifluoromethyl)phenyl]-1,2-dihydropyridin-3-yl}carbonyl)amino]-N,N,N-trimethylbutan-1-aminium iodide]	–
1050	Cc1c(-c2ccnn2-c2ccc(C#N)cc2)cc(C(=O)NCC[N+](C)(C)C)c(=O)n1-c1cccc(C(F)(F)F)c1 [Example 3, 2-[({5-[1-(4-cyanophenyl)-1H-pyrazol-5-yl]-6-methyl-2-oxo-1-[3-(trifluoromethyl)phenyl]-1,2-dihydropyridin-3-yl}carbonyl)amino]-N,N,N-trimethylethanaminium acetate]	–
–	Cc1c(-c2ccnn2-c2ccc(C#N)cc2)cc(C(=O)NCCC[N+](C)(C)C)c(=O)n1-c1cccc(C(F)(F)F)c1.O=S(=O)([O-])c1ccccc1 [Example 10, 3-(5-(1-(4-cyanophenyl)-1H-pyrazol-5-yl)-6-methyl-2-oxo-1-(3-(trifluoromethyl)phenyl)-1,2-dihydropyridine-3-carboxamido)-N,N,N-trimethylpropan-1-aminium benzenesulfonate]	hygroscopicity (in words) ([2]; description of the crystalline modification): low hygroscopicity; hygroscopicity ([2]; listed as Form B): 0.4 % (w/w)
771	Cc1c(-c2ccnn2-c2ccc(C#N)cc2)cc(C(=O)NCCCC[N+]2(C)CCCC2)c(=O)n1-c1cccc(C(F)(F)F)c1 [Example 2, 1-{-4-[({5-[1-(4-cyanophenyl)-1H-pyrazol-5-yl]-6-methyl-2-oxo-1-[3-(trifluoromethyl)phenyl]-1,2-dihydropyridin-3-yl}carbonyl)amino]butyl}-1-methylpyrrolidinium acetate]	–
570	Cc1c(-c2ccnn2-c2ccc(C#N)cc2)cc(C(=O)NCCC[N+](C)(C)C)c(=O)n1-c1cccc(C(F)(F)F)c1 [Example 7, 3-(5-(1-(4-cyanophenyl)-1H-pyrazol-5-yl)-6-methyl-2-oxo-1-(3-(trifluoromethyl)phenyl)-1,2-dihydropyridine-3-carboxamido)-N,N,N-trimethylpropan-1-aminium bromide]	–
971	Cc1c(-c2ccnn2-c2ccc(C#N)cc2)cc(C(=O)NCCC[N+]2(C)CCCC2)c(=O)n1-c1cccc(C(F)(F)F)c1 [Example 5, 1-{3-[({5-[1-(4-cyanophenyl)-1H-pyrazol-5-yl]-6-methyl-2-oxo-1-[3-(trifluoromethyl)phenyl]-1,2-dihydropyridin-3-yl}carbonyl)amino]propyl}-1-methylpyrrolidinium iodide]	–
949	Cc1c(-c2ccnn2-c2ccc(C#N)cc2)cc(C(=O)NCC[N+]2(C)CCCC2)c(=O)n1-c1cccc(C(F)(F)F)c1 [Example 1, 1-{2-[({5-[1-(4-cyanophenyl)-1H-pyrazol-5-yl]-6-methyl-2-oxo-1-[3-(trifluoromethyl)phenyl]-1,2-dihydropyridin-3-yl}carbonyl)amino]ethyl}-1-methylpyrrolidinium acetate]	–
1100	Cc1c(-c2ccnn2-c2ccc(C#N)cc2)cc(C(=O)NCCC[N+](C)(C)C)c(=O)n1-c1cccc(C(F)(F)F)c1 [Example 9a, 3-(5-(1-(4-cyanophenyl)-1H-pyrazol-5-yl)-6-methyl-2-oxo-1-(3-(trifluoromethyl)phenyl)-1,2-dihydropyridine-3-carboxamido)-N,N,N-trimethylpropan-1-aminium benzenesulfonate]	–
